Assay results taken from PubChem BioAssay AID1922 (Vanderbilt High Throughput Screening Facility, 2009).

Target: ATP-sensitive inward rectifier potassium channel 1 (Homo sapiens) (UniProt P48048)
Assay: PubChem AID 1922
Details: HEK-293 ROMK whole-cell patch clamp, % block, stronger effect = higher value

Sequence of ATP-sensitive inward rectifier potassium channel 1 (Homo sapiens) (P48048 whole entry, looked up): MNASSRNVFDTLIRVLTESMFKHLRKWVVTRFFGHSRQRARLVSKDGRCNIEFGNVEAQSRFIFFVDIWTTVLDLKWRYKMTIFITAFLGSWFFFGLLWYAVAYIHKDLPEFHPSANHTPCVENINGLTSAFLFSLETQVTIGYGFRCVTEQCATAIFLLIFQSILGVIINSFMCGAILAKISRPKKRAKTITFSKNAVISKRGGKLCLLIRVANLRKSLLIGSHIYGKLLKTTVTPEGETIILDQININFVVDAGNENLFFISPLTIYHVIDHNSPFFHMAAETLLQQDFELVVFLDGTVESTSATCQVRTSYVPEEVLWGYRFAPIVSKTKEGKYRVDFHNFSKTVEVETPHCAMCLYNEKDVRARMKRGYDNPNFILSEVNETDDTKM

`O=[N+]([O-])c1ccc(CN2CCOCCOCCN(Cc3ccc([N+](=O)[O-])cc3)CCOCC2)cc1` gave an inhibition (ROMK block, at 1 µM) of 63.4%, an inhibition (ROMK block, at 3 µM) of 78.2% and an inhibition (at 10 µM) of 95.3%.

Work on `O=[N+]([O-])c1ccc2nc(COCc3nc4ccc([N+](=O)[O-])cc4[nH]3)[nH]c2c1` yielded an inhibition (ROMK block, at 1 µM) of 62.6%, an inhibition (ROMK block, at 3 µM) of 78.3% and an inhibition (at 10 µM) of 88.7%.
